Experimental data taken from EP0341154A2, “Analogues of L-fucose, process for their preparation, their application for the preparation of glycals, anthracycline derivatives of the glycals and the use of the anthracyclines as medicaments” (priority 1988, dated 1989).

What was measured:
A549 = assay: MTT reduction proliferation test, 72 h incubation; assay type: cell-based; settings: A 549 cells
Description: (§1) Des cellules tumorales L1210, A549 et HT29, à une concentration de 5.10³/ml dans un milieu RPMI, sont incubées dans des plaques de microtitration contenant 96 puits, pendant 72 heures (37°C, 5 % CO₂, 95 % d'humidité relative) avec différentes concentrations de chacun des glycosides (anthracyclines) conformes à l'invention.
(§2) Les témoins consistent en cellules tumorales exposées à un milieu de culture. Quatre puits sont préparés pour chaque concentration en glycoside et pour le témoin. Après 65 heures, 50 µl de MTT (2,5 mg/ml dans du PBS) sont ajoutés.
(§3) Le MTT sera réduit, en présence de cellules vivantes en un colorant formazan rouge insoluble. Après 7 à 24 heures d'incubation supplémentaire, le surnageant est enlevé. Le colorant formazan est solubilisé par l'addition de 100 µl de DMSO dans chaque puits, suivie d'une agitation douce.
(§4) L'extinction est mesurée pour chaque puits, à 492 nm (photomètre Multiscan 340 CC Fa. Flow).
(§5) Les résultats sont exprimés comme le rapport de l'extinction après incubation avec les glycosides sur l'extinction obtenue avec les témoins. Le coefficient de variation est inférieur à 15 %.

HT29 = assay: MTT reduction proliferation test, 72 h incubation; assay type: cell-based; settings: HT 29 cells
Description: as §1, §2, §3, §4, §5

L1210 [1] = assay: MTT reduction proliferation test, 72 h incubation; assay type: cell-based; settings: L1210 cells
Description: as §1, §2, §3, §4, §5

L1210 [2] = assay: In vivo antitumour effect on L1210 ascites leukemia in mice; parameters: species or system souris BDF1; settings: for L1210 T/C %: 3 x 1.p./ 1.p. Q3D, BDF1 mice
Description: Un liquide d'ascite est prélevé dans les conditions aseptiques chez des souris DBA2 (femelle, 18 - 20 g) le septième jours après l'implantation.
L'ascite est lavée trois fois avec du PBS, comptée et finalement diluée dans du PBS, de manière à obtenir 10⁶ cellules/0,2 ml.
10⁶ cellules dans 0,2 ml de P BS sont injectées dans le peritoine de souris DBA2 pour la propagation de la lignée cellulaire.
10⁶ cellules dans 0,2 ml de PBS sont injectés intrapériotonéalement à des souris BDF1 (femelle 18 - 20 g), 6 animaux/group sont utilisés pour chaque concentration de substance et pour le contrôle.
• a) les animaux sont pesés le premier jour et le cinquième jour après l'administration du médicament. Une perte de poids supérieure à 20 % le cinquième jour est utilisée comme indicateur d'effet toxique du produit. • b) à la fin de l'expérience, (mort de tous les animaux ou soixantième jour de l'essai), le temps moyen de survie des animaux, dans tous les groupes ayant plus de 65 % de survivants au cinquième jour, est évalué selon des procédures standard.
Les animaux survivants au soixantième jour sont considérés comme des survivants de longue durée (LTS : Long Time Survivors) et sont répertoriés séparément.
A partir du temps de survie moyen des groupes traités (MSTT) et des groupes contrôle (MSTC), l'effet antitumoral (T/C) est évalué en fonction de la formule suivante : [formula]
Les valeurs T/C de plus de 125 % sont considé-rées comme des indicateurs d'un effet antitumoral significatif.

[3] = Acute toxicity in mice (Litchfield Wilcoxon); assay type: in vivo, souris NMRI; settings: 3 x i.p., NMRI mice, deaths counted after two weeks
Text: La substance à tester est injectée à des souris NMRI selon le protocole tel que précisé dans le Tableau IV, ci-après.
Après deux semaines, le nombre total d'animaux décédés dans chaque groupe est calculé et les DL₅₀ sont évaluées en utilisant la méthode de Litchfield Wilcoxon.

Compound | CI₅₀ TEST AU MTT A 549 (A549) | CI₅₀ TEST AU MTT HT 29 (HT29) | CI₅₀ TEST AU MTT L1210 (L1210 [1]) | L1210 T/C % (L1210 [2]; 10.00 mg/kg/Inj.) [%] | L1210 T/C % (L1210 [2]; 13.30 mg/kg/Inj.) [%] | L1210 T/C % (L1210 [2]; 17.70 mg/kg/Inj.) [%] | Morts toxiques (L1210 [2]; 17.70 mg/kg/Inj., 6 animals/group) | DL₅₀ [3]
CCC1(O)CC(OC2CC(OC(C)=O)C(OC(C)=O)C(C)O2)c2c(O)c3c(c(O)c2C1O)C(=O)c1cccc(O)c1C3=O [21 a, O-(di-O-acétyl-3′,4′ didésoxy-2′,6′-α-L-thréo-hexopyrannosyl)-7 β-Rhodomycinone] | 0,086 µg/ml | 0,038 µg/ml | 0,03 µg/ml | 134 | 152 | 146 | 1/6 | > 21.3
CCCCCC1OC(OC2CC(O)(CC)C(OC3CC(OC(C)=O)C(OC(C)=O)C(CCCCC)O3)c3c(O)c4c(c(O)c32)C(=O)c2c(O)cccc2C4=O)CC(OC(C)=O)C1OC(C)=O [22 c, di-O-(di-O-acétyl-3′,4′ hexadésoxy-2′,6′,7′,8′,9′, 10′-α-L-thréodécapyrannosyl)-7,10 β-Rhodomycinone] | > 1 µg/mL | > 1 µg/mL | > 1 µg/mL |  |  |  |  | 
CC[C@@H]1O[C@@H](O[C@H]2C[C@](O)(CC)[C@H](O[C@@H]3C[C@H](OC(C)=O)[C@H](OC(C)=O)[C@H](CC)O3)c3c(O)c4c(c(O)c32)C(=O)c2c(O)cccc2C4=O)C[C@H](OC(C)=O)[C@@H]1OC(C)=O [22 b, Di-O-(di-O-acétyl-3′,4′tridésoxy-2′,6′,7′-α-L-thréoheptopyrannosyl)-7,10 β-Rhodomycinone] | > 1 µg/mL | > 1 µg/mL | > 1 µg/mL |  |  |  |  | 
CCCCC[C@@H]1O[C@@H](O[C@H]2C[C@](O)(CC)[C@H](O)c3c(O)c4c(c(O)c32)C(=O)c2c(O)cccc2C4=O)C[C@H](OC(C)=O)[C@@H]1OC(C)=O [21 c, O-(di-O-acétyl-3′,4′hexadésoxy-2′,6′,7′,8′,9′,10′-α-L-thréodécapyrannosyl)-7 β-Rhodomycinone] | > 1 µg/mL | > 1 µg/mL | > 1 µg/mL |  |  |  |  | 
CC[C@@H]1O[C@@H](O[C@H]2C[C@](O)(CC)[C@H](O)c3c(O)c4c(c(O)c32)C(=O)c2c(O)cccc2C4=O)C[C@H](OC(C)=O)[C@@H]1OC(C)=O [21 b, O-(di-O-acétyl-3′-4′ tridésoxy-2′,6′,7′-α-L-thréo-heptopyrannosyl)-7 β-Rhodomycinone] | 0,46 µg/ml | > 1 µg/mL | 0,51 µg/ml |  |  |  |  | 
CCCCC1OC(OC2CC(O)(C(C)=O)Cc3c(O)c4c(c(O)c32)C(=O)c2c(OC)cccc2C4=O)CC(OC(C)=O)C1OC(C)=O (centres unmarked) [20 c, acétoxy-3′ O-acétyl-4′ désamino-3′ propyl-6′ daunorubicine] | > 1 µg/mL | > 1 µg/mL | > 1 µg/mL |  |  |  |  | 
